# In publication PMC6297231 (Nature Communications, 2018):
# Legend:
# Experiment in all cases: cells
# BT20 = settings: Homo sapiens, BT-20, 6 h, read-out: AZD5991 6h EC50
# Outline: (§1)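 Cells were seeded at 3000 cells/well in their respective growth media and treated with compound. Caspase-3/7 activation was read by Caspase-Glo 3/7 luminescence and viability by CellTiter-Glo; EC50 and GI50 came from dose–response curves. Caspase activation is expressed relative to a cell-kill control set at 100%.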
# BT549 = settings: Homo sapiens, BT-549, 6 h, read-out: AZD5991 6h EC50
# Outline: as §1
# Calu1 = settings: Homo sapiens, Calu-1, 6 h, read-out: AZD5991 6h EC50
# Outline: as §1
# DMS114 = settings: Homo sapiens, DMS-114, 6 h, read-out: AZD5991 6h EC50
# Outline: as §1
# EOL1 = settings: Homo sapiens, EOL1, 6 h, read-out: AZD5991 6h EC50
# Outline: as §1
# GIST T1 = settings: Homo sapiens, GISTT1, 6 h, read-out: AZD5991 6h EC50
# Outline: as §1
# H1703 = settings: Homo sapiens, NCI-H1703, 6 h, read-out: AZD5991 6h EC50
# Outline: as §1
# H2110 = settings: NCI-H2110, 6 h, read-out: AZD5991 6h EC50
# Outline: as §1
# H2286 = settings: Homo sapiens, NCI-H2286, 6 h, read-out: AZD5991 6h EC50
# Outline: as §1
# H460 = settings: Homo sapiens, NCI-H460, 6 h, read-out: AZD5991 6h EC50
# Outline: as §1
# H647 = settings: Homo sapiens, NCI-H647, 6 h, read-out: AZD5991 6h EC50
# Outline: as §1
# H82 = settings: Homo sapiens, NCI-H82, 6 h, read-out: AZD5991 6h EC50
# Outline: as §1
# KMS11 = settings: Homo sapiens, KMS-11, 6 h, read-out: AZD5991 6h EC50
# Outline: as §1
# KMS12BM = settings: Homo sapiens, KMS-12-BM, 6 h, read-out: AZD5991 6h EC50
# Outline: as §1
# Karpas422 = settings: Homo sapiens, KARPAS-422, 6 h, read-out: AZD5991 6h EC50
# Outline: as §1
# Karpas620 = settings: Karpas-620, 6 h, read-out: AZD5991 6h EC50
# Outline: as §1
# L363 = settings: Homo sapiens, L-363, 6 h, read-out: AZD5991 6h EC50
# Outline: as §1
# LUDLU1 = settings: LUDLU-1, 6 h, read-out: AZD5991 6h EC50
# Outline: as §1
# MALME3M = settings: Homo sapiens, Malme-3M, 6 h, read-out: AZD5991 6h EC50
# Outline: as §1
# MDAMB468 = settings: Homo sapiens, MDA-MB-468, 6 h, read-out: AZD5991 6h EC50
# Outline: as §1
# MUTZ3 = settings: 6 h, read-out: AZD5991 6h EC50
# Outline: as §1
# OPM2 = settings: Homo sapiens, OPM-2, 6 h, read-out: AZD5991 6h EC50
# Outline: as §1
# SKBR3 = settings: Homo sapiens, SK-BR-3, 6 h, read-out: AZD5991 6h EC50
# Outline: as §1
# SKMEL3 = settings: Homo sapiens, SK-MEL3, 6 h, read-out: AZD5991 6h EC50
# Outline: as §1
# SNU16 = settings: Homo sapiens, SNU-16, 6 h, read-out: AZD5991 6h EC50
# Outline: as §1
# Sudhl10 = settings: Homo sapiens, SU-DHL10, 6 h, read-out: AZD5991 6h EC50
# Outline: as §1
# Sudhl16 = settings: Homo sapiens, SU-DHL-16, 6 h, read-out: AZD5991 6h EC50
# Outline: as §1
# Sudhl2 = settings: Homo sapiens, SU-DHL-2, 6 h, read-out: AZD5991 6h EC50
# Outline: as §1
# Sudhl4 = settings: Homo sapiens, SU-DHL-4, 6 h, read-out: AZD5991 6h EC50
# Outline: as §1
# THP-1 = settings: Homo sapiens, THP-1, 6 h, read-out: AZD5991 6h EC50
# Outline: as §1
# TMD8 = settings: Homo sapiens, TMD8, 6 h, read-out: AZD5991 6h EC50
# Outline: as §1
# Toledo = settings: Homo sapiens, 6 h, read-out: AZD5991 6h EC50
# Outline: as §1
# U266B1 = settings: 6 h, read-out: AZD5991 6h EC50
# Outline: as §1
# VAL = settings: 6 h, read-out: AZD5991 6h EC50
# Outline: as §1
compound,measurement,setting,value
"Cc1c2c(nn1C)CSCc1cc(n(C)n1)CSc1cc(c3ccccc3c1)OCCCc1c(C(=O)O)n(C)c3c-2c(Cl)ccc13 (atropisomer, axis not shown; (Ra)) [(Ra)-7]",EC50,BT20,> 30000 nM
same,EC50,BT549,1780 nM
same,EC50,Calu1,> 30000 nM
same,EC50,DMS114,290 nM
same,EC50,EOL1,13 nM
same,EC50,GIST T1,> 30000 nM
same,EC50,H1703,801 nM
same,EC50,H2110,226 nM
same,EC50,H2286,> 30000 nM
same,EC50,H460,> 30000 nM
same,EC50,H647,> 30000 nM
same,EC50,H82,201 nM
same,EC50,KMS11,1570 nM
same,EC50,KMS12BM,56 nM
same,EC50,Karpas422,530 nM
same,EC50,Karpas620,122 nM
same,EC50,L363,90 nM
same,EC50,LUDLU1,1890 nM
same,EC50,MALME3M,> 30000 nM
same,EC50,MDAMB468,> 30000 nM
same,EC50,MUTZ3,26 nM
same,EC50,OPM2,59 nM
same,EC50,SKBR3,> 30000 nM
same,EC50,SKMEL3,> 30000 nM
same,EC50,SNU16,183 nM
same,EC50,Sudhl10,10 nM
same,EC50,Sudhl16,139 nM
same,EC50,Sudhl2,275 nM
same,EC50,Sudhl4,266 nM
same,EC50,THP-1,125 nM
same,EC50,TMD8,> 30000 nM
same,EC50,Toledo,1260 nM
same,EC50,U266B1,> 30000 nM
same,EC50,VAL,172 nM
